Assay results taken from PubChem BioAssay (NCI).
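Briefly, cells in 96-well plates were exposed to five compound concentrations for 48 h, and endpoints were estimated by linear interpolation. TGI denotes the concentration required for complete inhibition of growth.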

What was measured:
Test in all cases: NCI-60 cell line screen, 48 h
[1] = tested on: 786-0 renal
[2] = tested on: A498 renal
[3] = tested on: A549 NSCLC
[4] = tested on: ACHN renal
[5] = tested on: BT-549 breast
[6] = tested on: CAKI-1 renal
[7] = tested on: CCRF-CEM leukemia
[8] = tested on: COLO 205 colon
[9] = tested on: DU-145 prostate
[10] = tested on: EKVX NSCLC
[11] = tested on: HCC-2998 colon
[12] = tested on: HCT-116 colon
[13] = tested on: HCT-15 colon
[14] = tested on: HL-60(TB) leukemia
[15] = tested on: HOP-62 NSCLC
[16] = tested on: HOP-92 NSCLC
[17] = tested on: HT29 colon
[18] = tested on: IGROV1 ovarian
[19] = tested on: K-562 leukemia
[20] = tested on: KM12 colon
[21] = tested on: LOX IMVI melanoma
[22] = tested on: M14 melanoma
[23] = tested on: MCF7 breast
[24] = tested on: MDA-MB-231 breast
[25] = tested on: MDA-MB-435
[26] = tested on: NCI-H226 lung
[27] = tested on: NCI-H23 lung
[28] = tested on: NCI-H460 lung
[29] = tested on: NCI-H522 lung
[30] = tested on: NCI/ADR-RES ovarian
[31] = tested on: OVCAR-3 ovarian
[32] = tested on: OVCAR-4 ovarian
[33] = tested on: OVCAR-5 ovarian
[34] = tested on: OVCAR-8 ovarian
[35] = tested on: PC-3 prostate
[36] = tested on: RPMI-8226 leukemia
[37] = tested on: RXF 393 renal
[38] = tested on: SF-268 CNS
[39] = tested on: SF-295 CNS
[40] = tested on: SF-539 CNS
[41] = tested on: SK-MEL-2 melanoma
[42] = tested on: SK-MEL-28 melanoma
[43] = tested on: SK-MEL-5 melanoma
[44] = tested on: SK-OV-3 ovarian
[45] = tested on: SN12C renal
[46] = tested on: SNB-75 CNS
[47] = tested on: T-47D breast
[48] = tested on: TK-10 renal
[49] = tested on: U251 CNS
[50] = tested on: UACC-257 melanoma
[51] = tested on: UACC-62 melanoma
[52] = tested on: UO-31 renal
[53] = tested on: HS 578T breast
[54] = tested on: MALME-3M melanoma
[55] = tested on: MOLT-4 leukemia
[56] = tested on: SNB-19 CNS
[57] = tested on: SR leukemia

Compound: N#CI1OC(C(F)(F)F)(C(F)(F)F)c2ccccc21
- TGI [1]: 27.2 µM
- TGI [2]: > 100 µM
- TGI [3]: > 100 µM
- TGI [4]: 36.9 µM
- TGI [5]: 40.9 µM
- TGI [6]: 28 µM
- TGI [7]: > 100 µM
- TGI [8]: 26.8 µM
- TGI [9]: 38.4 µM
- TGI [10]: 30.1 µM
- TGI [11]: 36.1 µM
- TGI [12]: 30.4 µM
- TGI [13]: 32.6 µM
- TGI [14]: > 100 µM
- TGI [15]: > 100 µM
- TGI [16]: 42.5 µM
- TGI [17]: 40.8 µM
- TGI [18]: 31.8 µM
- TGI [19]: > 100 µM
- TGI [20]: 35.5 µM
- TGI [21]: 43.3 µM
- TGI [22]: 36.2 µM
- TGI [23]: 42.3 µM
- TGI [24]: 54.7 µM
- TGI [25]: 38.4 µM
- TGI [26]: 49 µM
- TGI [27]: 36 µM
- TGI [28]: 72.5 µM
- TGI [29]: 27.3 µM
- TGI [30]: 40.3 µM
- TGI [31]: 29.2 µM
- TGI [32]: 30.6 µM
- TGI [33]: 36.6 µM
- TGI [34]: 30.5 µM
- TGI [35]: 30.1 µM
- TGI [36]: > 100 µM
- TGI [37]: 32.4 µM
- TGI [38]: 73.9 µM
- TGI [39]: > 100 µM
- TGI [40]: 36.9 µM
- TGI [41]: 30.5 µM
- TGI [42]: 37.4 µM
- TGI [43]: 33.8 µM
- TGI [44]: > 100 µM
- TGI [45]: 68 µM
- TGI [46]: 32.4 µM
- TGI [47]: 49.3 µM
- TGI [48]: 39.1 µM
- TGI [49]: 52.5 µM
- TGI [50]: 51.8 µM
- TGI [51]: 38.8 µM
- TGI [52]: 28.6 µM

Compound: CCCCC(=O)OC[n+]1ccc2c(C)c3[nH]c4ccc(OC)cc4c3c(C)c2c1
- TGI [4]: 3.84 µM
- TGI [6]: 4.64 µM
- TGI [9]: 4.82 µM
- TGI [10]: 3.6 µM
- TGI [11]: 1.8 µM
- TGI [12]: 1.37 µM
- TGI [14]: > 100 µM
- TGI [53]: 2.73 µM
- TGI [54]: > 33.3 µM
- TGI [55]: 1.13 µM
- TGI [33]: 5.61 µM
- TGI [36]: 0.983 µM
- TGI [38]: > 100 µM
- TGI [40]: 1.92 µM
- TGI [41]: > 100 µM
- TGI [44]: 2.93 µM
- TGI [56]: 4.35 µM
- TGI [46]: 27.2 µM
- TGI [57]: 1.04 µM
- TGI [47]: 14.2 µM
- TGI [48]: 15.2 µM
- TGI [50]: > 34.4 µM
- TGI [52]: 4.08 µM
